Assay results from US6818208B2, “Use of a flavonoid extract of ginkgo biloba substantially devoid of terpenes, in the dentibuccal field, and composition containing such extract” (Societe de Conseils de Recherches et d'Applications …, priority 1996, dated 2004).

Target: T1, human leucocyte elastase (HLE) (Homo sapiens, UniProt P08246)
T1 sequence (P08246 30-267): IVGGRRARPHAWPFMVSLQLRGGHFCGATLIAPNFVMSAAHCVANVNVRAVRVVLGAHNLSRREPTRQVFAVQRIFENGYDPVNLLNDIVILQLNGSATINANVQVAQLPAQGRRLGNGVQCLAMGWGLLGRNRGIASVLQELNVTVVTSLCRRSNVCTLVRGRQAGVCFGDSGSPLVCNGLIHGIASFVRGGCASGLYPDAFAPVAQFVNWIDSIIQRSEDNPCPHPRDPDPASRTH
Assay: Anti-elastasic activity ex vivo on frozen sections of human gums (elastic fibres remaining, morphometric quantification by image analysis)
Format: biochemical
Conditions: HLE + PMSF, HLE 10 μm/ml, two hours
Method: The purpose of this study is therefore to study the anti-elastasic activity of an extract as defined above, alone or in combination with ceramides. This activity is evaluated on sections of human gums.
The ceramides used, of vegetable origin, are obtained according to a process as described in Patent FR 2676936 incorporated by way of reference, a process which comprises exctraction from wheat, using a polar extraction solvent followed by recrystallization from an organic solvent. They are essentially composed of glucosylceramides and ceramides.
For this purpose, the elastic fibre network is subjected to human leucocyte elastase (HLE), with or without an anti-elastasic product. The elastic fibres remaining after enzymatic action are stained with (+) catechin.
Frozen sections of 8 μm are carried out from 5 samples obtained from biopsies of normal buccal mucosa, taken during dental extractions.
In a first stage, the concentration in human leucocyte elastase required for the destruction of elastic fibres is determined: leucocyte elastase is applied to the skin sections for two hours at ambient temperature and in a humid atmosphere; after fixing in acetone and dehydration in ethanol at […], the remaining elastic fibres are stained with (+) catechin. Total destruction of the elastic fibres is obtained in the presence of 10 μm/ml of human leucocyte elastase.
The anti-elastasic activity of the products is compared with that of (PMSF), a powerful elastase inhibitor.

`O=S(=O)(F)Cc1ccccc1` [PMSF] was tested, and the “% of elastic fibres remaining after treatment with human leucocyte elastase” value (“% of elastic fibres remaining” below) (lower corium dermis) was 70%, the “% of elastic fibres remaining” value (medium corium dermis) was 55% and the “% of elastic fibres remaining” value (upper corium dermis) was 25%.
